From patent US11028127B2, “Peptides capable of reactivating p53 mutants” (Yeda Research and Development Co. Ltd., priority 2013, dated 2021)
Primed or numbered codes have the meaning given here. Where no end group is shown, it is not given here. [ ]: non-standard residue; d: D form. The star is where a group is joined. FITC′ = fluorescein isothiocyanate label at the N-terminus; Myristoyl = CCCCCCCCCCCCCC(=O)*

System: Mut-p53
Assay: Total activity score over combined assays (Table 8)
Set-up: scale not given here
Conditions: for Activity Score: Table 10 summary of activity of the peptides tested; for AS (Activity Score): total score of Table 7; for Conformation, activity score / PCR, activity score: Table 8; for Conformation, activity score: the 14 score columns c4-c17 stand under the heads Conformation, DNA binding, Viability, PCR; for PCR, activity score: head span not shown
Excerpt: Several alternative and complementary methods to screen lead peptide candidates for conformational and functional effects on Mut-p53 were employed. For increased penetration of peptide across cell membranes each peptide contains 3-6 Arginine residues either as part of its sequence or added either at its N-terminus or its C-terminus. […] In-vitro based assays for evaluation were first performed, such as ELISA for assessment of p53 conformation and sequence-specific DNA binding of p53.

Row | Substance | Activity Score | other results
1 | pCAP159 ([dR][dR][dR][dR][dR][dR][dR][dR]G[dL][dR]G[dR][dR][dI][dF][dL][dI][dF][dS]) | 53 | AS (Activity Score): 53
2 | pCAP160 ({FITC′}-SFILFIRRGRLGRRRRRRRRR) | 24 | AS (Activity Score): 24
3 | pCAP161 (HNAH) | 29 | AS (Activity Score): 29
4 | pCAP162 (SILT) | 2 | AS (Activity Score): 2
5 | pCAP163 (LTLS) | 4 | AS (Activity Score): 4
6 | pCAP164 (PLTLI) | 0 | AS (Activity Score): 0
7 | pCAP165 (SLLIG) | 0 | AS (Activity Score): 0
8 | pCAP166 (KPPER) | 0 | AS (Activity Score): 0
9 | pCAP167 (FILIR) | 5 | AS (Activity Score): 5
10 | pCAP168 (CRIIR) | 0 | AS (Activity Score): 0
11 | pCAP169 (SFILI) | 0 | AS (Activity Score): 0
12 | pCAP170 (IRILM) | 27 | AS (Activity Score): 27
13 | pCAP171 (PHHHS) | 0 | AS (Activity Score): 0
14 | pCAP172 (EFHS) | 0 | AS (Activity Score): 0
15 | pCAP173 (RLRRL) | 0 | AS (Activity Score): 0
16 | pCAP174 (HSTPHP) | 54 | AS (Activity Score): 54
17 | pCAP175 (DSPR) | 0 | AS (Activity Score): 0
18 | pCAP176 (HPWTH) | 0 | AS (Activity Score): 0
19 | pCAP177 (HFSHH) | 0 | AS (Activity Score): 0
20 | pCAP178 (RRVI) | 0 | AS (Activity Score): 0
21 | pCAP179 (ILVI) | 0 | AS (Activity Score): 0
22 | pCAP201 (HPTHPIRLRDNLTR) | 3 | –
23 | pCAP202 (DEDAKFRIRILMRR) | 8 | Conformation, activity score: 3
24 | pCAP203 (RRRHDSCHNQLQNYDHSTE) | 42 | PCR, activity score: 4
25 | pCAP204 (MSTESNMPRLIQNDDRRR) | 20 | PCR, activity score: 5

Row | Substance | Activity Score | other results
26 | pCAP205 (RCRNRKKEKTECLQKESEK) | 5 | –
27 | pCAP206 (RRRSHSQENVDQDTDE) | 19 | PCR, activity score: 6
28 | pCAP207 (RRSRSNEDVEDKTEDE) | 0 | –
29 | pCAP208 (RRIRSGGKDHAWTPLHENH) | 0 | –
30 | pCAP209 (HTPHPPVARTSPLQTPRR) | 0 | –
31 | pCAP210 (DEFERYRRFSTSRRR) | 29 | PCR, activity score: 6; Conformation, activity score: 3
32 | pCAP211 (PDSEPPRMELRRR) | 0 | –
33 | pCAP212 (Myristoyl-REEETILIIRRR) | 3 | –
34 | pCAP213 (RRIKMIRTSESFIQHIVS) | 5 | –
35 | pCAP214 (RRRESEQRSISLHHHST) | 2 | –
36 | pCAP215 (RRDTFDIRILMAF) | 0 | –
37 | pCAP216 (Myristoyl-HFNHYTFESTCRRRRC; cysteine pairing not given here) | 2 | –
38 | pCAP217 (HSTPHPPQPPERRR) | 2 | –
39 | pCAP218 (RREVTELHHTHEDRR) | 0 | –
40 | pCAP219 (SYRHYSDHWEDRRR) | 1 | –
41 | pCAP220 (STTHPHPGTSAPEPATRRR) | 6 | –
42 | pCAP221 (Myristoyl-RRKHNKHRPEPDSDER) | 60 | PCR, activity score: 6; Conformation, activity score: 3
43 | pCAP222 (RYEENNGVNPPVQVFESRTR) | 4 | –
44 | pCAP223 (SPWTHERRCRQR) | 0 | –
45 | pCAP224 (RRKSEPHSLSGGYQTGAD) | 2 | –
46 | pCAP225 (HTIHSISDFPEPPDRRRR) | 3 | –
47 | pCAP226 (DDSDNRIIRYRR) | 6 | –
48 | pCAP227 (Myristoyl-RRKILFIRLMHNKH) | 67 | PCR, activity score: 4; Conformation, activity score: 4
49 | pCAP228 (DEDAAHSTGHPHNSQHRRRR) | 3 | –
50 | pCAP229 (Myristoyl-PRVLPSPHTIHPSQYP) | 36 | PCR, activity score: 4

Row | Substance | Activity Score | other results
51 | pCAP230 (RKRGKSYAFFVPPSESKERW) | 63 | PCR, activity score: 6; Conformation, activity score: 3
52 | pCAP231 (HRTQSTLILFIRRGRET) | 9 | –
53 | pCAP232 (RSRSSHLRDHERTHT) | 0 | –
54 | pCAP233 (SHYHTPQNPPSTRRR) | 11 | –
55 | pCAP234 (HRTGHYTRCRQRCRSRSHNRH) | 2 | –
56 | pCAP235 (RSYSKLLCLLERLRISP) | 11 | –
57 | pCAP236 (RRRSTNTFLGEDFDQ) | 0 | –
58 | pCAP237 (HTIHVHYPGNRQPNPPLILQR) | 12 | –
59 | pCAP238 (TSPHPSLPRHIYPRR) | 6 | –
60 | pCAP239 (REGFYGPWHEQRRR) | 4 | –
61 | pCAP240 (TEQHHYIPHRRR) | 3 | –
62 | pCAP241 (LIGLSTSPRPRIIR) | 0 | –
63 | pCAP242 (Myristoyl-RRLIVRILKLPNPPER) | 67 | PCR, activity score: 6; Conformation, activity score: 4
64 | pCAP243 (RRCRSILPLLLLSR) | 2 | –
65 | pCAP244 (RRVSELQRNKHGRKHEL) | 5 | –
66 | pCAP245 (NHITNGGEEDSDCSSRRRRL) | 8 | –
67 | pCAP246 (RRRLDDEDVQTPTPSEYQN) | 5 | –
68 | pCAP247 (RRITEIRGRTGKTTLTYIED) | 6 | –
69 | pCAP248 (EIYGESGKTDEHALDTEYRR) | 0 | –
70 | pCAP249 (Myristoyl-DERTGKTRRYIDTRDIRR) | 6 | –
71 | pCAP251 (RLRRVILRSYHE) | 3 | –
72 | pCAP252 (RRVILRSYDGGHSTPHPD) | 0 | –
73 | pCAP253 (TGKTFVKRHLTEFEKKYR) | 0 | –
74 | pCAP254 (NHFDYDTIELDTAGEYSRRR) | 0 | –
75 | pCAP255 (DPEPPRYLPPPPERR) | 0 | –

Row | Substance | Activity Score | other results
76 | pCAP256 (RTLHGRRVILHEGGHSISDLK) | 2 | –
77 | pCAP257 (Myristoyl-HSSHHHPTVQHRR) | 8 | –
78 | pCAP258 (FLIGPDRLIRSR) | 23 | PCR, activity score: 4
79 | pCAP259 (Myristoyl-RTLIGIIRSHHLTLIRR) | 25 | PCR, activity score: 2
80 | pCAP260 (RRTFIRHRIDSTEVIYQDED) | 0 | PCR, activity score: 6; Conformation, activity score: 4
81 | pCAP261 (RRRQPLPSAPENEE) | 5 | –
82 | pCAP262 (ESKTGHKSEEQRLRRYR) | 0 | –
83 | pCAP263 (YDDEHNHHPHHSTHRRR) | 0 | –
84 | pCAP264 (RRRREVHTIHQHGIVHSD) | 0 | –
85 | pCAP265 (EEPDRQPSGKRGGRKRRSR) | 3 | –
86 | pCAP266 (HHRLSYFIVRRHSTHASR) | 2 | –
87 | pCAP267 (KRGGRKRRGGGHRLSYFIRR) | 28 | PCR, activity score: 2; Conformation, activity score: 3
88 | pCAP268 (TPSYGHTPSHHRRR) | 12 | Conformation, activity score: 3
89 | pCAP269 (DEPLPPPERRR) | 0 | –
90 | pCAP270 (SPHPPY) | 0 | –
91 | pCAP271 (SPHPPYSPHPPYSPHPPYP) | 0 | –
92 | pCAP272 (RRPHNLHHD) | 0 | –
93 | pCAP273 (RDFHTIHPSISRR) | 3 | –
94 | pCAP274 (LRDPHPPERRIR) | 0 | –
95 | pCAP275 (Myristoyl-MTYSDMPRRIITDEDRRR) | 6 | –
96 | pCAP276 (RRVDIHDGQRR) | 3 | –
97 | pCAP277 (DQPYPHRRIR) | 3 | –
98 | pCAP278 (RRYDTVIDDIEYRR) | 6 | –
99 | pCAP279 (RDTIERPEIRR) | 6 | –
100 | pCAP280 (Myristoyl-RYRRLILEIWRR) | 6 | –

Row | Substance | Activity Score | other results
101 | pCAP281 (Myristoyl-RDFILFIRRLGRR) | 3 | –
102 | pCAP282 (Myristoyl-RRPVAPDLRHTIHIPPER) | 43 | PCR, activity score: 3; Conformation, activity score: 4
103 | pCAP283 (RRPADQISYLHPPER) | 0 | –
104 | pCAP284 (Myristoyl-RHDTHNAHIRR) | 6 | –
105 | pCAP285 (RRDIIRHNAHS) | 4 | –
106 | pCAP286 (HDFHDYLERR) | 4 | –
107 | pCAP287 (RDFERTIVDI) | 8 | –
108 | pCAP288 (THDFDRLLRIRRR) | 6 | –
109 | pCAP289 (RHNHIRPDNQ) | 6 | –
110 | pCAP290 (RYKEPRITPRE) | 6 | –
111 | pCAP291 (DLQYDFPRIRR) | 0 | –
112 | pCAP292 (YDELYQKEDPHRRR) | 0 | –
113 | pCAP293 (RRIRIDPQHD) | 2 | –
114 | pCAP294 (FKPERFPQNDRRR) | 0 | –
115 | pCAP295 (LDLYHPRERR) | 3 | –
116 | pCAP296 (RPADRIRR) | 0 | –
117 | pCAP297 (HDFDPRYRDRR) | 0 | –
118 | pCAP298 (RRIRDPLGNEHE) | 3 | –
119 | pCAP299 (ILQPDFLIRPE) | 2 | –
120 | pCAP300 (RIRRDPDSPLPHPE) | 0 | –
121 | pCAP301 (Myristoyl-IRGRIRIIRRIR) | 12 | –
122 | pCAP302 (LRIEPIRIR) | 6 | –
123 | pCAP303 (IVEFRIRR) | 3 | –
124 | pCAP304 (Myristoyl-RRIRILMFLIGCGRV) | 0 | –
